US10456359B2, “Synergistic beverage composition” (Harsha Chigurupati, priority 2015, dated 2019)
Where a SMILES comes first, the peptide text is derived from it.

What was measured:
[1] = test system: acetylcholinesterase activity of brain homogenate; details: Pro: Protection (%), rats, alcohol 5 Day
Description: (§4) We have included this parameter to evaluate cognition and memory deficit in experimental animals.
(§5) Experimental Design • (b) Animal study model 1: Saline/Alcohol (4.0 gm/kg/day, p.o.)/Formulation with alcohol (4.0 gm/kg/day, p.o.) were administered (fed orally by orogastric cannula) for one day. 12-16 hours after the dose the animals were sacrificed and blood samples will be collected for estimation of biochemical parameters. Whole brain without cerebellum were dissected out, 10% homogenate was prepared with 0.1 M PB (pH 7.4). The homogenate solution was centrifuged at 10000 rpm for 20 minutes at 4° C. and the supernatant was used for estimation of acetylcholinesterase activity, which was estimated by Ellman's method (Ellman G L et al. A new and rapid colorimetric determination of acetylcholinesterase activity. Biochem Pharmacol, 1961, 7:88.) • (c) Animal study model 2: Saline/Alcohol (4.0 gm/kg/day, p.o.)/Formulation with alcohol (4.0 gm/kg/day, p.o.) were administered (fed orally by orogastric cannula) for 5 consecutive days. 12-16 hours after the last dose, the animals were sacrificed and blood samples were collected for estimation of biochemical parameters. Whole brain without cerebellum were dissected out, 10% homogenate was prepared with 0.1 M PB (pH 7.4). The homogenate solution was centrifuged at 10000 rpm for 20 minutes at 4° C. and the supernatant was used for estimation of acetylcholinesterase activity. […] The latency period of day 5 (before alcohol) was compared with post alcohol latency period (Vorhees C V and Williams M T. Morris water maze: procedures for assessing spatial and related forms of learning and memory, Nat Protoc, 2006, 1(2): 848-58.). % Protection Calculated in Above Experiments: % Protection=1−[(T−NS)/(AL−NS)]×100 T=Mean value of drug treated, NS=Mean value of normal control, AL=Mean value of alcohol alone.
(§6) Male Wistar albino rats weighing 150-200 g were procured and randomly divided into groups consisting of twelve (12) animals in each group. Alcohol induced hangover and CNS related biochemical changes and memory function in rats by oral administration of 30% alcohol (4 gm/kg/day, p.o.) for 1 and 5 days and this group served as the negative control and treated groups received different formulation.
(§7) All drug solutions were prepared in 40% aqueous alcohol, adjusting the pH in the range of 5.0-10.0 for evaluation of alcohol induced hangover and CNS related biochemical parameters.

interleukin-12 (IL-12) [2] = assay: CNS/immunology study, serum IL-12, alcohol 5 days; assay type: in vivo, Wistar albino rats; details: Pro: Protection (%), rats, alcohol 5 Day
Description: (§1) For hangover, 1 day immunology parameter were considered and for CNS, 5 days immunology parameter were considered.

[3] = test system: interleukin-12 (IL-12) from brain homogenate; assay: CNS study, IL-12 from brain homogenate, alcohol 5 days; assay type: in vivo, Wistar albino rats; details: rats, alcohol 5 Day; for Brain IL12 Pro: Pro: Protection (%)
[4] = test system: spatial learning and memory; assay: Morris water maze task (escape latency), alcohol 5 days; assay type: in vivo, Wistar albino rats; details: Pro: Protection (%), rats, alcohol 5 day
[5] = test system: serum C-reactive protein (CRP); assay: Hangover study, serum CRP, alcohol 1 day; assay type: in vivo, Wistar albino rats; details: 1 Day alcohol
Description: as §1

[6] = test system: serum C-reactive protein (CRP); assay: CNS/immunology study, serum CRP, alcohol 5 days; assay type: in vivo, Wistar albino rats; details: Pro: Protection (%), rats, alcohol 5 Day
Description: as §1

interleukin-12 (IL-12) [7] = assay: Hangover study, serum IL-12, alcohol 1 day; assay type: in vivo, Wistar albino rats; parameters: concentration or dose not given beside the values; details: 1 Day alcohol
Description: as §1

[8] = test system: Monocyte chemoattractant protein-1 (MCP-1); assay: Hangover study, serum MCP-1, alcohol 1 day; assay type: in vivo, Wistar albino rats; parameters: concentration or dose not given beside the values; details: 1 Day alcohol
Description: (§2) The lowest detectable limit of the kit is 0.1 ng/ml (Wang L, Li Y, Chen J, et al. “Ischemic Cerebral Tissue and MCP-1 Enhance Rat Bone Marrow Stromal Cell Migration in Interface Culture.” Experimental Hematology, 30, 7, 2002, 831-836).
as §1

[9] = test system: aspartate aminotransferase (AST); assay: Hepatoprotection study, serum AST, alcohol 5 days; assay type: in vivo, Wistar albino rats; details: Pro: Protection (%), rats, alcohol 4 gm/kg/day p.o.
Interferon gamma (IFN-γ) [10] = assay: CNS/immunology study, serum IFN-gamma, alcohol 5 days; assay type: in vivo, Wistar albino rats; details: Pro: Protection (%), rats, alcohol 5 Day
Description: (§3) Distilled ethanol was obtained from Bengal Chemicals, West Bengal, India. Biochemical kits like AST, ALT, ALP and total protein were obtained from Span Diagnostics Ltd. Surat, India. Rat IL-12 ELISA kit (Elabscience Biotechnology Co. Ltd, WuHan, P.R.C.), Rat CRP ELISA kit (BD Biosciences, USA), Rat IFN-gamma ELISA kit (Biolegend, San Diego, Calif.) Rat MCP-1 ELISA kit (Elabscience Biotechnology Co. Ltd, WuHan, P.R.C.). All the chemicals used in the present study were of analytical grade and obtained from the following companies: Sigma (St. Louis, Mo., USA), Merck (Mumbai, India), S D fine chemicals (Mumbai, India) and Qualigen (Mumbai, India).
as §1

[11] = test system: Monocyte chemoattractant protein-1 (MCP-1) from brain homogenate; assay: Hangover study, MCP-1 from brain homogenate, alcohol 1 day; assay type: in vivo, Wistar albino rats; details: 1 Day alcohol
[12] = test system: interleukin-12 (IL-12) from brain homogenate; assay: Hangover study, IL-12 from brain homogenate, alcohol 1 day; assay type: in vivo, Wistar albino rats; parameters: concentration or dose not given beside the values; details: 1 Day alcohol
[13] = test system: Monocyte chemoattractant protein-1 (MCP-1); assay: CNS/immunology study, serum MCP-1, alcohol 5 days; assay type: in vivo, Wistar albino rats; details: Pro: Protection (%), rats, alcohol 5 Day
Description: as §2, §1

[14] = test system: serum alanine aminotransferase (ALT); assay: Hepatoprotection study, serum ALT, alcohol 5 days; assay type: in vivo, Wistar albino rats; details: Pro: Protection (%), rats, alcohol 4 gm/kg/day p.o.
[15] = test system: Monocyte chemoattractant protein-1 (MCP-1) from brain homogenate; assay: CNS study, MCP-1 from brain homogenate, alcohol 5 days; assay type: in vivo, Wistar albino rats; details: rats, alcohol 5 Day; for Brain MCP-1 Pro: Pro: Protection (%)
[16] = test system: acetylcholinesterase activity of brain homogenate; details: Hangover study, 1 Day alcohol; ingredient amounts in mass concentration (%)
Description: as §4, §5, §6, §7

[17] = test system: alkaline phosphatase (ALP); details: Pro: Protection (%); rats, alcohol 4 gm/kg/day p.o., 5 days, serum
Description: The levels of alanine aminotransferase (ALT), aspartate aminotransferase (AST) and alkaline phosphatise (ALP) in serum were measured using commercial spectrophotometric kit bought from Span Diagnostic Ltd. (www.span.in) according to the manufacturer's protocols.
12-16 hours after the last dose, the animals were sacrificed and blood samples were collected for estimation of biochemical parameters.
Male Wistar albino rats weighing 150-200 g were procured and randomly divided into groups consisting of twelve (12) animals in each group. Hepatoprotection was induced by alcohol in rats by oral administration of 30% alcohol (4 gm/kg/day, p.o.) for 5 days and this group served as the negative control and treated groups received different formulation.
All drug solutions were prepared in 40% aqueous alcohol, adjusting the pH in the range of 5.0-10.0 for evaluation of alcohol induced Hepatoprotection. This solution was further diluted with distilled water to obtain 30% aqueous alcoholic solution and administered orally by gavage to different rats group of step (a).

Interferon gamma (IFN-γ) [18] = assay: Hangover study, serum IFN-gamma, alcohol 1 day; assay type: in vivo, Wistar albino rats; parameters: concentration or dose not given beside the values; details: 1 Day alcohol
Description: as §3, §1

Row | Structure (SMILES) | ACHe Pro [1] | IL12 Pro (interleukin-12 (IL-12) [2]) | Brain IL12 Pro [3] | WATER MAZE Pro [4] | CRP Pro (Protection) [5] | CRP Pro [6] | IL12 Pro (Protection) (interleukin-12 (IL-12) [7]) | MCP-1 Pro (Protection) [8] | AST Pro [9] | IFN-Gamma Pro (Interferon gamma (IFN-γ) [10]) | Brain MCP-1 Pro (Protection) [11] | Brain IL12 Pro (Protection) [12] | MCP-1 Pro [13] | ALT Pro [14] | Brain MCP-1 Pro [15] | ACHe Pro (Protection) [16] | ALP Pro [17] | IFN-Gamma Pro (Protection) (Interferon gamma (IFN-γ) [18]) | Brain IL12 Syn ([3]; Syn: Synergism (%)) | Brain MCP-1 Syn ([15]; Syn: Synergism (%))
1 | CC1(C(=O)O)CCC2(C)CCC3(C)C(=CC(=O)C4C5(C)CCC(OC6OC(C(=O)O)C(O)C(O)C6OC6OC(C(=O)O)C(O)C(O)C6O)C(C)(C)C5CCC43C)C2C1 (stereo not drawn) [0.1 GA, 18β-GA] | 9.4% | 5.85% | 3.66% | 5.32% | 5.15% | 5.19% | 2.6% | 3.79% | 8.25% | 0% | 4.25% | 3.16% | 0% | 4.24% | 3.58% | 11.79% | 6.29% | 2.58% | – | –
2 | C/C=C/C=C/C(=O)[O-].[K+] [0.1 KS, Potassium Sorbate] | 0% | 1.2% | 0.00% | 1.31% | 1.2% | 0.87% | 0.89% | 0.16% | 0.09% | 0% | 0.19% | 0.24% | 1.04% | 0.11% | 0% | 0.24% | 0% | 0.11% | 0% | 0%
3 | CC1(C(=O)O)CCC2(C)CCC3(C)C(=CC(=O)C4C5(C)CCC(OC6OC(C(=O)O)C(O)C(O)C6OC6OC(C(=O)O)C(O)C(O)C6O)C(C)(C)C5CCC43C)C2C1 (stereo not drawn) [0.3 GA, 18β-GA] | 21.5% | 10.07% | 15.63% | 15.57% | 11.21% | 15.63% | – | 13.97% | 20.46% | 23.18% | 18.92% | – | 15.46% | 25.62% | 21.36% | – | 11.68% | 7.85% | – | –
4 | OC[C@@H](O)[C@@H](O)[C@H](O)[C@H](O)CO [0.5 Man, D-Mannitol] | 5.22% | – | – | 4.95% | – | – | 3.59% | 3.27% | 4.28% | – | – | 4.25% | – | 3.59% | 2.75% | 4.12% | 4.78% | 3.51% | – | –
5 | C[C@H](N)C(=O)N[C@@H](CCC(N)=O)C(=O)O [1 DP, L-Ala-L-Gln] (H-Ala-Gln-OH) | 3.91% | 16.44% | 10.30% | 22.38% | 31.3% | 6.33% | 6.13% | 20.74% | 15.68% | 8.89% | 3.58% | 10.53% | 7.14% | 13.4% | – | – | 18.96% | 12.25% | – | –
6 | OC[C@@H](O)[C@@H](O)[C@H](O)[C@H](O)CO [1.2 Man, D-Mannitol] | 17.58% | – | 13.92% | 12.84% | 8.68% | – | 13.45% | 11.85% | 22% | – | 21.28% | 12.28% | – | 23.19% | 14.28% | 21.54% | 24.48% | 7.79% | – | –
7 | C[C@H](N)C(=O)N[C@@H](CCC(N)=O)C(=O)O [1.5 DP, L-Ala-L-Gln] (H-Ala-Gln-OH) | 15.29% | 22.53% | – | 24.53% | 26.13% | 11.97% | 20.11% | 11.04% | 20.25% | – | 14.96% | 18.26% | 11.01% | 14.68% | – | 21.14% | 22.35% | 20.58% | – | –
8 | C[C@H](N)C(=O)N[C@@H](CCC(N)=O)C(=O)O [1.25 DP, L-Ala-L-Gln] (H-Ala-Gln-OH) | 9.7% | 22.71% | 15.82% | 10.36% | 10.61% | – | – | 14.22% | 22% | 13.09% | 17.02% | 7.02% | 8.14% | 17.59% | – | 20.33% | 22.73% | 10.44% | – | –
9 | C[C@H](N)C(=O)N[C@@H](CCC(N)=O)C(=O)O [2.0 DP, L-Ala-L-Gln] (H-Ala-Gln-OH) | 36.85% | 29.54% | – | 50.36% | 33.14% | 27.24% | 31.9% | 21.43% | 30.72% | 22.91% | 23.54% | 26.34% | 19.16% | 38.83% | 24.36% | 31.79% | 28.68% | 25.96% | – | –
10 | OC[C@@H](O)[C@@H](O)[C@H](O)[C@H](O)CO [2.5 Man, D-Mannitol] | 30.61% | – | 28.33% | 25.4% | 18.33% | – | 21.4% | – | 42.57% | – | 27.66% | 23.16% | – | 38.4% | 24.65% | 45.12% | 34.75% | 18.22% | – | –
11 | C[C@H](N)C(=O)N[C@@H](CCC(N)=O)C(=O)O [3 DP, L-Ala-L-Gln] (H-Ala-Gln-OH) | 59.25% | 32.6% | 27.57% | 59.17% | 41.82% | 27.59% | 30.98% | 29.69% | 32.95% | 30.24% | – | – | 13.51% | 29.7% | – | 59.25% | 29.08% | 31.08% | – | –
